# Laboratory results from US20250057963A1, “DISCOVERY OF PIPERLONGUMINE AS A NOVEL E3 LIGASE LIGAND” (University of Florida Research Foundation, Incorporated, priority 2021, published 2025).
# Entries after “also recorded” stand apart in the source; their conditions may differ.
# Tests used:
# [1] = biological target: T1, E3 ligases interacting with V5-TurboID-CDK9 (Homo sapiens, UniProt Q14145); assay: TurboID-bait assay (V5-TurboID-CDK9 in 293T cells) with LC-MS/MS or immunoblot; format: cell-based; conditions: with vs without 955, biotin present
# T1 construct: The biotinylated proteins identified by MS in 293T cells; expressed in transfected cells; host or cells: 293T
# T1 sequence (Q14145 whole entry): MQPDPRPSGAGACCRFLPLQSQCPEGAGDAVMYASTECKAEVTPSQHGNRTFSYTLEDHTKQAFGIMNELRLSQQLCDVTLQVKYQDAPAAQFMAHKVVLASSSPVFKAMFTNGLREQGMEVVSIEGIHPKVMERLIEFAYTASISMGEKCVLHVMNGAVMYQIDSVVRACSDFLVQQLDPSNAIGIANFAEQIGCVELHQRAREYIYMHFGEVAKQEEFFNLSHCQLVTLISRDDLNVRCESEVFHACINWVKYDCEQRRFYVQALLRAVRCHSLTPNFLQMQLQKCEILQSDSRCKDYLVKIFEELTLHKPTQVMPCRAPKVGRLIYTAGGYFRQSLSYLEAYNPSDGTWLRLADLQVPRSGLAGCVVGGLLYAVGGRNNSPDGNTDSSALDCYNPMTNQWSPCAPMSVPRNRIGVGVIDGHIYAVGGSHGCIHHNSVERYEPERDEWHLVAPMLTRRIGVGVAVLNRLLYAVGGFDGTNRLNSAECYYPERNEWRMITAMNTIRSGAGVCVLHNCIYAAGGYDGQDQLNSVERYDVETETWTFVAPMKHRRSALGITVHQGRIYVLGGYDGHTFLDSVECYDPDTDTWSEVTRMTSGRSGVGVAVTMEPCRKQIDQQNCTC
# T1 sequence (P50750 whole entry partner): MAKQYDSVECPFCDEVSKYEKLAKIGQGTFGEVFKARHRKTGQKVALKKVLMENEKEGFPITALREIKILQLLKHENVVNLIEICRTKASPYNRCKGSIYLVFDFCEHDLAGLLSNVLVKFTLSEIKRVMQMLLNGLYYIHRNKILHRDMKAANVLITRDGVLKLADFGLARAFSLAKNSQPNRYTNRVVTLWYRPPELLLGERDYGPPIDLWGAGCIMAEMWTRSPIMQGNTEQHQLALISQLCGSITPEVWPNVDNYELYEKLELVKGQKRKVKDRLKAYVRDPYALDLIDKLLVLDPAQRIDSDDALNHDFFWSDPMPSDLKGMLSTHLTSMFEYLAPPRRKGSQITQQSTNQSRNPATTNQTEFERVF
# Source text: (§1) Construction of the pcDNA3-V5-TurboID-CDK9 plasmid. To build the TurboID-bait assay, we first constructed a V5-TurboID-tagged CDK9 plasmid (pDL2518) through Gibson assembly method. The template plasmids HA-CDK9 (a gift from Andrew Rice, plasmid #28102) and V5-TurboID-NES_pCDNA3 (a gift from Alice Ting, plasmid #107169) were purchased from Addgene. The primer pair (5′-cagtctgcggtctgccgaaaagctgcag[…]-3′ and 5′-cagggtcaggcgctccaggggaggcag[…]-3′) and the template HA-CDK9 were used to clone the CDK9 fragment. The two primer pairs: pair-1 (5′-[…]ctgcctcccctggagcgcctgaccctg-3′ and 5′-[…]-3′); pair-2 (5′-[…]-3′ and 5′-[…]ctgcagcttttcggcagaccgcagactg-3′) and the template V5-TurboID-NES_pCDNA3 were used to clone the V5-TurbolD fragment. The PCR fragments were assembled using NEBuilder® HiFi DNAAssembly Master Mix (Cat. No. E2621, NEB, Ipswich, MA, USA). DNA sequences in all these plasmids were authenticated by automatic sequencing.
# (§2) TurboID-bait assay. 293T (6×10^5 for WB detection and 1.2×10^6 for MS) cells were transfected with plasmid V5-TurboID-CDK9 using Lipofectamine 2000 as previously described (Lv et al., 2021). […] Then the cells were harvested and lysed in 1×PBS buffer (Cat. #D1408, Sigma-Aldrich). After centrifugation at 20,000×g for 60 min at 4° C., the supernatant soluble fraction was used for further analysis. […]
# [2] = test system: E3 ligases interacting with V5-TurboID-CDK9; assay: as above; format: cell-based, Human; conditions: MS of biotinylated proteins with vs without 955
# Source text: as §1, §2
structure (smiles),measurement,setting,value
"COc1cc(/C=C/C(=O)N2CCC=CC2=O)cc(OC)c1OCCN1CCN(C(=O)CN2CCC(C(=O)Nc3ncc(SCc4ncc(C(C)(C)C)o4)s3)CC2)CC1 [compound 955, (E)-N-(5-(((5-(tert-butyl)oxazol-2-yl)methyl)thio)thiazol-2-yl)-1-(2-(4-(2-(2,6-dimethoxy-4-(3-oxo-3-(6-oxo-3,6-dihydropyridin-1(2H)-yl)prop-1-en-1-yl)phenoxy)ethyl)piperazin-1-yl)-2-oxoethyl)piperidine-4-carboxamide]",KEAP1 pulled down (immunoblot validation),[1],more KEAP1 could be pulled down; also recorded: significantly more KEAP1 can be pulled down
same,number of E3 ligases recruited to CDK9,[2],6
